Data set [1] in a line: Plasma stability in mouse plasma. The class given is in vitro ADME.
The nature of another data set: Solubility in FaSSIF. The class given is physicochemical. To be noted: read-out: SOL (μM) FaSSIF.
The nature of data set [2]: Chemical stability in PBS pH 6.5. The format is physicochemical.

Converted amounts (≈) assume the structure as drawn. Where only a bound is given, the exact number is not on record here.

Usually half-life stands for how long it takes for the measured level to halve. High values mean slow decline, low ones rapid decline. Turning to `COC(=S)N(C)C(C)Cc1ccc2c(c1)OCO2` (stereo not shown) [Prodrug 1, O-methyl (1-(benzo[d][1,3]dioxol-5-yl)propan-2-yl)(methyl)carbamothioate], the “Remaining Percentages (%) 0 min” value in data set [1] (1 μM, 0 min) is 100%. The “Remaining Percentages (%) 15 min” value in data set [1] (1 μM, 15 min) stood at 108.17%. Moreover, in data set [1] (1 μM, 30 min), the “Remaining Percentages (%) 30 min” value came to 96.20%. Besides, the “Remaining Percentages (%) 60 min” value in data set [1] (1 μM, 60 min) is recorded as 103.37%. Also, the “Remaining Percentages (%) 120 min” value in data set [1] (1 μM, 120 min) was determined as 100.00%. The half-life at 1 μM in data set [1] (test concentration 1 μM) is more than 8.52 h. Moreover, the solubility in the data set “Solubility in FaSSIF” was 278 µM (≈ 74.4 µg/mL). The same compound showed a half-life in data set [2] (PBS pH 6.5) of more than 17.1 h. In data set [2] (PBS pH 6.5, 0 min), the “Remaining Percentage (%) 0 min” value is reported as 100.00%. In data set [2] (PBS pH 6.5, 30 min), the “Remaining Percentage (%) 30 min” value is recorded as 95.62%. In data set [2] (PBS pH 6.5, 60 min), the “Remaining Percentage (%) 60 min” value was found to be 102.35%. Moreover, the “Remaining Percentage (%) 120 min” value in data set [2] (PBS pH 6.5, 120 min) stood at 93.11%. The “Remaining Percentage (%) 240 min” value in data set [2] (PBS pH 6.5, 240 min) is reported as 106.73%.
